Data as given in US20230123334A1, “AMINO LIPID COMPOUND, PREPARATION METHOD THEREFOR, AND APPLICATION THEREOF” (SHENZHEN SHENXIN BIOTECHNOLOGY CO., LTD., priority 2020, published 2023).

System: HEK293 cells
Experiment: Preliminary screening as mRNA vectors, EGFP mRNA transfection of HEK293 cells
Type: cell-based
Conditions: EGFP mRNA 50 ng per well, 96-well plates; percentage of GFP fluorescent cells relative to total number of cells (Hoechst)
Method: Cell line: HEK293 cells (ATCC CRL-1573™)
Medium: DMEM supplemented with 10% fetal bovine serum (Invitrogen)
Screening: cell transfection on 96-well plates
Detection (readout): percentage of the number of GFP fluorescent cells relative to the total number of cells (the total number of cells was determined using nucleus dye Hoechst). Lipofectamine2000 (Invitrogen) was used as the positive control.
Method: the experimental method was basically the same with Example 4, and the mass of EGFP mRNA (TriLink) for transfection was 50 ng per well.

Structure (SMILES) | Absolute mRNA transfection efficiency in HEK293 cells
CCCCCCCCCCCCCCCCCCSc1nc(NCCCCCCCCCCCCC)nc(NCCCN2CCOCC2)n1 [Compound D8S18N13] | 0.0%
CCCCCCCCCCSc1nc(NCCCCCC)nc(NCCN(C)C)n1 [Compound D1S10N6] | 0.4%
CCCCCCCCCCCCCCSc1nc(NCCCCCCCCCCC)nc(NCCN2CCN(C)CC2)n1 [Compound D5S14N11] | 19.8%
CCCCCCCCCCCCCCCCSc1nc(NCCCCCCCCCCCCCCC)nc(NCCN(C)C)n1 [Compound D1S16N15] | 1.4%
CCCCCCCCCSc1nc(NCCCCCCC)nc(NCCN2CCN(C)CC2)n1 [Compound D5S9N7] | 2.6%
CCCCCCCCCCCCSc1nc(NCCN(C)C)nc(SCCCCCC)n1 [Compound D1S6S12] | 0.6%
CCCCCCCCCCCCCCCCNc1nc(NCC2CCN(C)CC2)nc(SCCCCCCCCCCCCCCCC)n1 [Compound D10S16N16] | 2.8%
CCCCCCCCCCCCNc1nc(NCCN(CC)CC)nc(SCCCCCCCCC)n1 [Compound D7S9N12] | 25.6%
CCCCCCCCCCSc1nc(NCCN2CCCCC2)nc(SCCCCCCCC)n1 [Compound D4S8S10] | 9.2%
CCCCCCCCCSc1nc(NCCCCCCCC)nc(NCCN2CCCCC2)n1 [Compound D4S9N8] | 6.6%
CCCCCCCCCCCCCCCCCCNc1nc(NCCN(CC)CC)nc(SCCCCCCCCCCCCCCCC)n1 [Compound D7S16N18] | 1.5%
CCCCCCCCCCCCCCCCNc1nc(NCCCN2CCOCC2)nc(SCCCCCCCCC)n1 [Compound D8S9N16] | 2.1%
CCCCCCCCCCCNc1nc(NCCN2CCCCC2)nc(SCCCCCCCCC)n1 [Compound D4S9N11] | 17.4%
CCCCCCCCCCCCCCCSc1nc(NCCCCCCCCC)nc(NCC2CCN(C)CC2)n1 [Compound D10S15N9] | 12.8%
CCCCCCCCCCCCSc1nc(NCCCN(C)C)nc(SCCCCCC)n1 [Compound D6S6S12] | 24.7%
CCCCCCCCCCCCCCCNc1nc(NCCN(C)C)nc(SCCCCCCCCCCCCCC)n1 [Compound D1S14N15] | 1.1%
CCCCCCCCCCCCCCCCSc1nc(NCCCCCCCCC)nc(NCCN2CCCC2)n1 [Compound D3S16N9] | 92.8%
CCCCCCCCCCCCCCSc1nc(NCCCCCCCCCCCC)nc(NCCN(CC)CC)n1 [Compound D7S14N12] | 6.6%
CCCCCCCCCCCCCCCCCCSc1nc(NCCCCCCC)nc(NCC2CCN(C)CC2)n1 [Compound D10S18N7] | 45.8%
CCCCCCCCCCCCCNc1nc(NCCCN(C)C)nc(SCCCCCCC)n1 [Compound D6S7N13] | 44.9%
CCCCCCCCCCCCCCCCSc1nc(NCCCCCCCCCCCCCCC)nc(NCC2CCN(C)CC2)n1 [Compound D10S16N15] | 2.6%
CCCCCCCCCCCCCCSc1nc(NCCCCCCCCCCC)nc(NCCN(C)C)n1 [Compound D1S14N11] | 14.3%

Structure (SMILES) | Absolute mRNA transfection efficiency in HEK293 cells
CCCCCCCCCCCCCCCCCCSc1nc(NCCCCCCCCCCCC)nc(NCCN(C)C)n1 [Compound D1S18N12] | 2.3%
CCCCCCCCCCCCN(CCCCCCCCCCCC)c1nc(NCCN2CCOCC2)nc(SCCCCCCCCCCC)n1 [D2S11^2N12] | 0.3%
CCCCCCCCCCCCCCSc1nc(NCCCCCCCCCCC)nc(NCC2CCN(C)CC2)n1 [Compound D10S14N11] | 21.4%
CCCCCCCCCCCCNc1nc(NCCCN2CCOCC2)nc(SCCCCCCCCC)n1 [Compound D8S9N12] | 11.2%
CCCCCCCCCCCCCCCCCCNc1nc(NCCN2CCCC2)nc(SCCCCCC)n1 [Compound D3S6N18] | 32.5%
CCCCCCCCSc1nc(NCCCCCC)nc(NCCCN2CCOCC2)n1 [Compound D8S8N6] | 1.0%
CCCCCCCCCCCCCCCNc1nc(NCCN2CCCC2)nc(SCCCCCCCCC)n1 [Compound D3S9N15] | 67.9%
CCCCCCCCCCCCCCCCCCNc1nc(NCCN2CCOCC2)nc(SCCCCCCCCC)n1 [Compound D2S9N18] | 2.4%
CCCCCCCCCCCSc1nc(NCCCCCCC)nc(NCCCN2CCOCC2)n1 [Compound D8S11N7] | 3.1%
CCCCCCCCCCSc1nc(NCCCCCCC)nc(NCCN2CCN(C)CC2)n1 [Compound D5S10N7] | 3.2%
CCCCCCCCCCCCCCCCNc1nc(NCCN(CC)CC)nc(SCCCCCCCCC)n1 [Compound D7S9N16] | 10.9%
CCCCCCCCCCCCSc1nc(NCCCCCCCCCCC)nc(NCC2CCN(C)CC2)n1 [Compound D10S12N11] | 26.6%
CCCCCCCCCCCCCCCSc1nc(NCCCCCCCCCCCCC)nc(NCCN2CCCCC2)n1 [Compound D4S15N13] | 0.8%
CCCCCCCCCCCCN(CCCCCCCCCCCC)c1nc(NCCN(CC)CC)nc(SCCCCCCCCCCC)n1 [D7S11^2N12] | 0.7%
CCCCCCCCCSc1nc(NCCCCCCCC)nc(NCCN2CCCC2)n1 [Compound D3S9N8] | 10.4%
CCCCCCCCCCCCNc1nc(NCCCN(C)C)nc(SCCCCCCCCCCCC)n1 [Compound D6S12N12] | 10.4%
CCCCCCCCCCCCCCSc1nc(NCCCCCCCCC)nc(NCCN2CCCCC2)n1 [Compound D4S14N9] | 4.0%
CCCCCCCCCCCCCCCNc1nc(NCC2CCN(C)CC2)nc(SCCCCCC)n1 [Compound D10S6N15] | 7.9%
CCCCCCCSc1nc(NCCCN2CCN(C)CC2)nc(SCCCCCCC)n1 [Compound D9S7S7] | 18.3%
CCCCCCCCCCCCCNc1nc(NCCN2CCCCC2)nc(SCCCCCCCC)n1 [Compound D4S8N13] | 4.5%
CCCCCCCCCCCCSc1nc(NCCCCCCCCC)nc(NCCN2CCOCC2)n1 [Compound D2S12N9] | 1.1%
CCCCCCCCCCCCCCCSc1nc(NCCCCCCCCCCCCC)nc(NCCN2CCN(C)CC2)n1 [Compound D5S15N13] | 1.5%

Structure (SMILES) | Absolute mRNA transfection efficiency in HEK293 cells
CCCCCCCCCCSc1nc(NCCCN2CCOCC2)nc(SCCCCCC)n1 [Compound D8S6S10] | 4.2%
CCCCCCCCNc1nc(NCCN(C)C)nc(SCCCCCC)n1 [Compound D1S6N8] | 3.1%
CCCCCCCCCCCCSc1nc(NCCN(C)C)nc(SCCCCCCCC)n1 [Compound D1S8S12] | 1.4%
CCCCCCCCCCCCCCCCCCNc1nc(NCCCN2CCOCC2)nc(SCCCCCCC)n1 [Compound D8S7N18] | 3.0%
CCCCCCCCCCCCCCCNc1nc(NCCN(CC)CC)nc(SCCCCCC)n1 [Compound D7S6N15] | 2.2%
CCCCCCCCCCCNc1nc(NCCN2CCCC2)nc(SCCCCCCCC)n1 [Compound D3S8N11] | 6.6%
CCCCCCCCCCCCSc1nc(NCCCCCCCCCCC)nc(NCCN(C)C)n1 [Compound D1S12N11] | 2.6%
CCCCCCCCCCCCCCSc1nc(NCCN2CCCC2)nc(N(CCCCCCCCCCCC)CCCCCCCCCCCC)n1 [D3S14^2N12] | 0.2%
CCCCCCCCCCSc1nc(NCCCCCCC)nc(NCCCN2CCOCC2)n1 [Compound D8S10N7] | 0.6%
CCCCCCCCCCCCNc1nc(NCCCN2CCN(C)CC2)nc(SCCCCCC)n1 [Compound D9S6N12] | 4.9%
CCCCCCCNc1nc(NCCCN2CCN(C)CC2)nc(SCCCCCC)n1 [Compound D9S6N7] | 2.6%
CCCCCCCCCCCNc1nc(NCCN(C)C)nc(SCCCCCCCCCCC)n1 [Compound D1S11N11] | 24.7%
CCCCCCCCCCCCCCCNc1nc(NCC2CCN(C)CC2)nc(SCCCCCCCC)n1 [Compound D10S8N15] | 53.3%
CCCCCCCCCCCCCCCCCCSc1nc(NCCCCCCCCCCC)nc(NCCCN(C)C)n1 [Compound D6S18N11] | 5.7%
CCCCCCCCCCCCCNc1nc(NCCN2CCCCC2)nc(SCCCCCCCCCC)n1 [Compound D4S10N13] | 0.3%
CCCCCCCCCCSc1nc(NCCCCCCC)nc(NCCCN2CCN(C)CC2)n1 [Compound D9S10N7] | 0.8%
CCCCCCCCCNc1nc(NCCN(C)C)nc(SCCCCCCCC)n1 [Compound D1S8N9] | 21.4%
CCCCCCCCCCCCN(CCCCCCCCCCCC)c1nc(NCCN2CCCC2)nc(SCCCCCC)n1 [D3S6^2N12] | 0.4%
CCCCCCCCCCCCCCCCCCNc1nc(NCCN(C)C)nc(SCCCCCCCCCCCCCCCC)n1 [Compound D1S16N18] | 0.5%
CCCCCCCCSc1nc(NCCCCCCC)nc(NCCN2CCCCC2)n1 [Compound D4S8N7] | 1.8%
CCCCCCCCCSc1nc(NCC2CCN(C)CC2)nc(SCCCCCCCC)n1 [Compound D10S8S9] | 37.6%
CCCCCCCCCCCCCCCCSc1nc(NCCN2CCN(C)CC2)nc(N(CCCCCCCCCCCC)CCCCCCCCCCCC)n1 [D5S16^2N12] | 0.1%
